Results on 34 compounds are retold here after US20060293374A1, “Substituted isothiazolones” (priority 2005, published 2006).

Series [1] relates to Neutrophil LTB4. Nature of the series: Neutrophil LTB4 assay (calcium ionophore challenge, EIA). It is filed as cell-based. Conditions: Neutrophil; test concentration of 5 μM; human neutrophils, calcium ionophore 1 μM; read-out: LTB4 percent inhibition. The procedure: Neutrophils purified from human blood were resuspended in HBSS buffer containing calcium and magnesium to a cell density of 1×10^6/mL. Purified neutrophils were then incubated with test compounds at a test concentration of 5 μM for 15 min at 37° C. Following incubation, the cells were challenged with calcium ionophore (1 μM final) for 15 minutes at 37° C. Negative control wells were incubated with equal volume of vehicle. The reaction was stopped by transferring the plate to ice for 5 minutes. The plate was centrifuged at 1500 RPM for 5 min at 4° C. LTB4 was calculated in cell free supernatants by EIA (Assay Design Inc).

The test system of series [2] is PMA Induced Acute Ear Edema. Nature of the series: PMA induced acute ear edema (mouse). It is filed as in vivo. Conditions: ear punch weight 6 h after PMA; for % Inh (percent inhibition of edema): test compound applied topically at about 1% to about 10%, 10 min before PMA. The procedure: PMA Induced Acute Ear Edema
PMA was prepared […] in an acetone:water mixture (99:1). 10 μL of 200 ng/10 μL was applied to the left ears of the mice. Control mice received 10 μL of vehicle. Test compounds were dissolved in the vehicle and applied at a test concentration of from about 1% to about 10% (depending on solubility) at 10 min before PMA application. β-methasone (1%) was used as a control. Six hours after the PMA application, mice were sacrificed and 6 mm ear punch biopsies were removed and weighed to assess edema.

Series [3] concerns TXB2 Released by Human Platelets. Nature of the series: Ionophore and arachidonic acid induced TXB2 released by human platelets (EIA). It is filed as cell-based. The note with it: human platelet-rich plasma; for pIC50: challenge with calcium ionophore (10 μM) or arachidonic acid (50 μM); for inhibition at 1 µM: test concentration of 1 μM, calcium ionophore or arachidonic acid challenge, read-out: TXB2 percent inhibition. As for the experimental part: Ionophore and Arachidonic Acid Induced TXB2 Released by Human Platelets
The plate was incubated for 15 minutes at 37° C. Following incubation, platelets were challenged with calcium ionophore (final 10 μM) or arachidonic acid (AA) (final 50 μM) and the plate was further incubated at 37° C. for 15 min. The plate was transferred to an ice bed for 5 min in order to stop the reaction. Supernatants were assayed for TXB2 production by EIA (Assay Design Inc) after diluting with assay buffer (Assay Design Inc).

Series [4] deals with Neutrophil LTB4. Nature of the series: Neutrophil LTB4 assay (calcium ionophore challenge, EIA). Conditions: human neutrophils, calcium ionophore 1 μM. It is filed as cell-based.

The structures appear in SMILES notation. pIC50: −log10 of the molar value.

Consider `O=C(c1ccccc1)c1ccc(Cn2sccc2=O)cc1` [Cpd 51, 2-(4-benzoylbenzyl)-isothiazol-3-one], for which, in series [1], the inhibition (commonly the drop in the measured response relative to a control, in per cent) at 5 µM was determined as 90%. Further, the “% Inh (percent inhibition of edema)” value in series [2] is on record as 84%. Besides, the negative-log IC50 (pIC50) (as a rule, the negative decadic logarithm of the IC50, by convention in mol/L) in series [3] is 5.92.
For the compound `O=c1ccsn1Cc1cccc(-c2ccco2)c1` [Cpd 49, 2-(3-furan-2-yl-benzyl)-isothiazol-3-one], the melting point (in general, the temperature, or range, at which the solid turns liquid) lay within 78 to 80 °C. For the same compound, in series [1], the inhibition at 5 µM turned out to be 100%. Besides, the negative logarithm of the IC50 (pIC50) in series [3] was 5.92.
Take `Cc1nc(-c2cccc(Cn3sccc3=O)c2)cs1` [Cpd 48, 2-[3-(2-methyl-thiazol-4-yl)benzyl]-isothiazol-3-one]: the pIC50 in series [4] and in series [3] was 5.82 each time.
`O=c1ccsn1Cc1cccc2ccccc12` [Cpd 2, 2-naphthalen-1-ylmethyl-isothiazol-3-one] showed a melting point of 121 to 125 °C. For the same compound, the inhibition at 5 µM in series [1] stood at 81%. Also, in series [3], the pIC50 was 5.52.
The like results for `O=c1cc(Cl)sn1Cc1ccc(-c2csnn2)cc1` [Cpd 21, 5-chloro-2-(4-[1,2,3]thiadiazol-4-yl-benzyl)isothiazol-3-one] were, in that order, 152 to 154 °C, 87% and 6.00.
Consider `Cc1nc(-c2ccc(Cn3sccc3=O)cc2)cs1` [Cpd 26, 2-[4-(2-methyl-thiazol-4-yl)-benzyl]-isothiazol-3-one], for which the melting point was in the range of 150.5 to 152 °C. For the same compound, the negative-log IC50 (pIC50) in series [4] was 5.77. For the same compound, in series [3], the negative-log IC50 (pIC50) is 6.40.
As to `O=c1cc(Cl)sn1Cc1ccc2c(c1)CCO2` [Cpd 16, 5-chloro-2-(2,3-dihydro-benzofuran-5-ylmethyl)-isothiazol-3-one], the melting point lay within 100 to 102 °C. Further, the inhibition at 5 µM in series [1] came to 97%. Also, in series [3], the pIC50 is 6.60.
Consider `O=c1cc(Cl)sn1Cc1ccc2ccccc2c1` [Cpd 14, 5-chloro-2-naphthalen-2-ylmethyl-isothiazol-3-one], for which, in series [1], the inhibition at 5 µM was 96%. In addition, in series [3], the negative logarithm of the IC50 (pIC50) was 6.46.
Consider `O=c1c(Cl)c(Cl)sn1Cc1csc2ccccc12` [Cpd 10, 2-benzo[b]thiophen-3-ylmethyl-4,5-dichloro-isothiazol-3-one], for which, in series [1], the inhibition at 5 µM stood at 100%. For the same compound, the inhibition at 1 µM in series [3] amounted to 84%.
With `Cc1nc(-c2ccc(Cn3sc(Cl)cc3=O)cc2)cs1` [Cpd 31, 5-chloro-2-[4-(2-methyl-thiazol-4-yl)-benzyl]-isothiazol-3-one], the inhibition at 5 µM in series [1] was found to be 88%. Besides, the inhibition at 1 µM in series [3] was 54%.
The like results for `O=c1cc(Cl)sn1Cc1nc(-c2cccs2)sc1Cl` [Cpd 61, 5-chloro-2-(5-chloro-2-thiophen-2-yl-thiazol-4-ylmethyl)-isothiazol-3-one] were, in that order, 100% and 49%.
With `O=C(c1ccccc1)c1ccc(Cn2sc(Cl)cc2=O)cc1` [Cpd 35, 5-chloro-2-(4-benzoylbenzyl)-isothiazol-3-one], in series [1], the inhibition at 5 µM turned out to be 100%. Besides, the negative logarithm of the IC50 (pIC50) in series [3] is 7.22.
For `O=c1c(Cl)c(Cl)sn1Cc1csc2ccc(Cl)cc12` [Cpd 18, 4,5-dichloro-2-(5-chloro-benzo[b]thiophen-3-ylmethyl)-isothiazol-3-one], the inhibition at 5 µM in series [1] came to 71%. Also, in series [3], the negative-log IC50 (pIC50) is 6.55.
Regarding `O=c1cc(Cl)sn1Cc1cc2ccccc2s1` [Cpd 7, 2-benzo[b]thiophen-2-ylmethyl-5-chloro-isothiazol-3-one], the melting point is 101 to 103 °C. For the same compound, the inhibition at 5 µM in series [1] was found to be 95%. Besides, the pIC50 in series [3] is 6.34.
`O=c1cc(Cl)sn1[C@H]1C[C@@H]1c1ccccc1` [Cpd 42, (1S,2R)-5-chloro-2-(2-phenyl-cyclopropyl)-isothiazol-3-one]: the inhibition at 5 µM in series [1] is 61%. Also, the pIC50 in series [3] was 6.40.
Regarding `Cc1nc(-c2cccc(-n3sccc3=O)c2)cs1` [Cpd 46, 2-[3-(2-methyl-thiazol-4-yl)-phenyl]-isothiazol-3-one], the inhibition at 5 µM in series [1] worked out at 64%. Further, in series [3], the negative-log IC50 (pIC50) is 6.00.
With `O=c1[nH]sc(Cl)c1Cc1csc(-c2cccs2)n1` [Cpd 62, 5-chloro-(2-thiophen-2-yl-thiazol-4-ylmethyl)-isothiazol-3-one], the inhibition at 5 µM in series [1] worked out at 96%. The negative logarithm of the IC50 (pIC50) in series [3] was 6.10.
On to `C#Cc1ccc(Cn2sc(Cl)cc2=O)cc1` [Cpd 40, 5-chloro-2-(4-ethynyl-benzyl)-isothiazol-3-one], for which the inhibition at 5 µM in series [1] was found to be 100%. Also, in series [3], the pIC50 is 6.70.
The like results for `O=c1ccsn1Cc1csc2ccc(Cl)cc12` [Cpd 20, 2-(5-chloro-benzo[b]thiophen-3-ylmethyl)-isothiazol-3-one] were, in that order, 88% and 6.00.
Take `O=c1c(Cl)c(Cl)sn1[C@H]1C[C@@H]1c1ccccc1` [Cpd 39, (1S,2R)-4,5-dichloro-2-(2-phenyl-cyclopropyl)-isothiazol-3-one]: the inhibition at 5 µM in series [1] turned out to be 94%. Besides, the pIC50 in series [3] was 6.70.
The corresponding values for `CC(c1cccc2ccccc12)n1sc(Cl)cc1=O` (stereo not drawn) [Cpd 5, 5-chloro-2-(1-naphthalen-1-yl-ethyl)-isothiazol-3-one] are 100% and 6.22.
For the compound `O=c1cc(Cl)sn1Cc1csc(-c2ccccc2)n1` [Cpd 53, 5-chloro-2-(2-phenyl-thiazol-4-ylmethyl)-isothiazol-3-one], in series [1], the inhibition at 5 µM turned out to be 92%. Further, in series [3], the negative-log IC50 (pIC50) is 6.40.
Consider `O=c1cc(Cl)sn1Cc1ccc(-n2cc(Cl)cn2)cc1` [Cpd 55, 5-chloro-2-[4-(4-chloro-pyrazol-1-yl)-benzyl]-isothiazol-3-one], for which, in series [1], the inhibition at 5 µM turned out to be 72%. For the same compound, in series [3], the pIC50 was 5.49.
As for `O=CC#Cc1cccc(Cn2sc(Cl)cc2=O)c1` [Cpd 60, [3-(5-chloro-3-oxo-3H-isothiazol-2-ylmethyl)-phenyl]-propynal], the inhibition at 5 µM in series [1] turned out to be 100%. Besides, the inhibition at 1 µM in series [3] is 72%.
With `O=c1ccsn1Cc1ccc(-n2cc(Cl)cn2)cc1` [Cpd 57, 2-[4-(4-chloro-pyrazol-1-yl)-benzyl]-isothiazol-3-one], the inhibition at 5 µM in series [1] amounted to 100%. For the same compound, the “% Inh (percent inhibition of edema)” value in series [2] worked out at 100%. Further, in series [3], the pIC50 is 5.52.
In the case of `O=c1ccsn1Cc1ccc(-c2csnn2)cc1` [Cpd 22, 2-(4-[1,2,3]thiadiazol-4-yl-benzyl)-isothiazol-3-one], in series [1], the inhibition at 5 µM was determined as 50%. Moreover, the negative logarithm of the IC50 (pIC50) in series [3] was 5.92.
As to `O=c1ccsn1Cc1cc2ccccc2s1` [Cpd 9, 2-benzo[b]thiophen-2-ylmethyl-isothiazol-3-one], the melting point is 144 to 146 °C. Besides, the inhibition at 5 µM in series [1] turned out to be 84%. Also, in series [2], the “% Inh (percent inhibition of edema)” value was 72%. Further, the pIC50 in series [3] is 5.74.
`O=c1cc(Cl)sn1Cc1sc2ccccc2c1Cl` [Cpd 6, 5-chloro-2-(3-chloro-benzo[b]thiophen-2-ylmethyl)-isothiazol-3-one] came in with a melting point of 118 to 120 °C. The inhibition at 5 µM in series [1] came to 70%. Further, the pIC50 in series [3] was 6.15.
In the case of `N#Cc1cccc(C#Cc2ccc(Cn3sc(Cl)cc3=O)cc2)c1` [Cpd 43, 3-[4-(5-chloro-3-oxo-3H-isothiazol-2ylmethyl)-phenylethynyl]-benzonitrile], in series [1], the inhibition at 5 µM came out at 100%. Besides, the pIC50 in series [3] is 5.80.
The like results for `O=c1ccsn1Cc1ccc2ccccc2c1` [Cpd 13, 2-naphthalen-2-ylmethyl-isothiazol-3-one] were, in that order, 78% and 5.89.
The corresponding values for `Cc1nc(-c2cccc(-n3sccc3=O)c2)c(Cl)s1` [Cpd 45, 2-[3-(2-methyl-5-chloro-thiazol-4-yl)-phenyl]-isothiazol-3-one] are 100% and 5.74.
Take `O=c1cc(Cl)sn1Cc1ccc(-c2ccco2)cc1` [Cpd 23, 5-chloro-2-(4-furan-2-yl-benzyl)-isothiazol-3-one]: the inhibition at 5 µM in series [1] worked out at 100%. The negative-log IC50 (pIC50) in series [3] is 6.52.
The like results for `O=c1cc(Cl)sn1Cc1csc2ccc(Cl)cc12` [Cpd 19, 5-chloro-2-(5-chloro-benzo[b]thiophen-3-ylmethyl)-isothiazol-3-one] were, in that order, 100% and 6.00.
For `C[C@H]1C[C@H]2[C@@H]3CCC4=CC(=O)C=C[C@]4(C)[C@@]3(F)[C@@H](O)C[C@]2(C)[C@@]1(O)C(=O)CO` [β-methasone, reference compound], the “β-methasone control, percent inhibition of edema” value in series [2] (β-methasone (1%) used as control) was 100%.
